Read-outs that look alike come from different tables or passages of the source.

In data set [1] the target is human ghrelin receptor (hGHS-R1a) (Homo sapiens, UniProt Q92847). Briefly: Aequorin functional assay (ghrelin receptor), CHO-K1 cells co-expressing Gα16 and aequorin. The conditions noted are these: functional (agonist) activity, standard method; TFA salts unless otherwise noted. It is filed as cell-based. From the text: Coelenterazine (Molecular Probes, Leiden, The Netherlands). […] Compound Handling
human ghrelin receptor (hGHS-R1a), sequence (Q92847 whole entry): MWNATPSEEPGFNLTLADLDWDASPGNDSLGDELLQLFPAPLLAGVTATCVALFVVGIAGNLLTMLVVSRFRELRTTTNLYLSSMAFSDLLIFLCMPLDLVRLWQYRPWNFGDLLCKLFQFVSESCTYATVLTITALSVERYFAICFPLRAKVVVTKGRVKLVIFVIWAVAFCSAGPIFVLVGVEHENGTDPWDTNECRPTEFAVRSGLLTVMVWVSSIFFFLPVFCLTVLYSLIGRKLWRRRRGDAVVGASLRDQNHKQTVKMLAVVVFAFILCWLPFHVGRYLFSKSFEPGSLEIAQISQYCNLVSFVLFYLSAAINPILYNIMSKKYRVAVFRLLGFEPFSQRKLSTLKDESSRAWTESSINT
• 1. […] Key Aspects of Method • 1. […] Results

In a further data set the target is motilin receptor (Homo sapiens, UniProt O43193). Put plainly: Selectivity for the ghrelin receptor versus the motilin receptor. Format: binding. From the text: The level of agonist activity and selectivity for representative compounds of the invention are shown below in Table 4.
motilin receptor, sequence (O43193 whole entry): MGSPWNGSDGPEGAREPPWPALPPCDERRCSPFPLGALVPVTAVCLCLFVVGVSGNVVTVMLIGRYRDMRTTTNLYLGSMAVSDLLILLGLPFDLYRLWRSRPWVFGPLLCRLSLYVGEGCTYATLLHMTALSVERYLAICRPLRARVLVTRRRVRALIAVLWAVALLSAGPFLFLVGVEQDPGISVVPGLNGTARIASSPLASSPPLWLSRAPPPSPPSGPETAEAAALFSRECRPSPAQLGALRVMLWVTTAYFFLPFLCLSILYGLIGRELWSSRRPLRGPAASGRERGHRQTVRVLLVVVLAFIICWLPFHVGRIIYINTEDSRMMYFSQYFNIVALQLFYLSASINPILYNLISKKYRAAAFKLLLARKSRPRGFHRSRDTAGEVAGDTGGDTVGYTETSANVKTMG
In data set [2] the target is T1, human growth hormone secretagogue receptor (hGHS-R1a) (Homo sapiens, UniProt Q92847).
T1 construct: purchased PerkinElmer BioSignal #RBHGHSM, lot#1887; host or cells: HEK-293, stably transfected (membranes)
T1 sequence (Q92847 whole entry): as the sequence (Q92847 whole entry) above
Put plainly: Competitive radioligand binding assay (ghrelin receptor), [125I]-ghrelin displacement on GHS-R/HEK 293 membranes. The conditions noted are these: read-out: Ki.

Data set [3] relates to gastric emptying in fasted rats. Put plainly: Gastric emptying in fasted rats (phenol red methylcellulose meal). It is filed as in vivo, rat. How it is done:
To examine the effects of compounds of the invention in a model for gastroparesis, compounds were evaluated for possible effects on gastric emptying in fasted rats.
GHRP-6 and test samples were dissolved in vehicle of 9% HPBCD/0.9% NaCl. Immediately following oral administration of methylcellulose (2%) containing phenol red (0.05%) (2 mL/rat), test substances or vehicle (9% HPBCD/0.9% NaCl) were each administered intravenously (i.v.) at a dosing volume of 5 mL/kg.
Male Wistar rats were provided by LASCO (A Charles River Licensee Corporation, Taiwan). Space allocation for 6 animals was 45×23×15 cm. Animals were housed in APEC® cages and maintained in a controlled temperature (22° C.-24° C.) and humidity (60%-80%) environment with 12 h light, 12 h dark cycles for at least one week in the laboratory prior to being used. Free access to standard lab chow for rats (Lab Diet, Rodent Diet, PMI Nutrition International, USA) and tap water was granted. All aspects of this work including housing, experimentation and disposal of animals were performed in general accordance with the Guide for the Care and Use of Laboratory Animals (National Academy Press, Washington, D.C., 1996).
Test substances were each administered intravenously to a group of 5 O/N-fasted Wistar derived male rats weighing 200±20 g immediately after methylcellulose (2%) containing phenol red (0.05%) was administered orally at 2 mL/animal. […] Following protein precipitation by 20% trichloroacetic acid (0.5 mL) and re-alkalization of the supernatant with 0.1 N NaOH, total phenol red remaining in the stomach was determined by a colorimetric method at 560 nm. A 30 percent or more (≧30%) increase in gastric emptying, detected as the decrease in phenol red concentration in the stomach relative to the vehicle control group, is considered significant.
• 1. […] Total phenol red remaining in the stomach was quantified by a colorimetric method at 560 nm. • 5. A >30% increase in gastric emptying, detected based on the phenol red concentration in comparison to the control group, is considered significant. […]

In a further data set the test system is morphine-treated rats. Put plainly: Model of opioid-delayed gastric emptying and gastrointestinal transit (morphine) in rats. Format: in vivo, rat. The settings on record: 3 mg/kg s.c., FIG. 16A. From the text:
7. The Effect of Compounds of the Invention on Gastric Emptying and Gastrointestinal Transit in a Model of Opioid-Delayed Gastric Emptying
Opioid analgesics, such as morphine, are well known to delay gastrointestinal transit which is an important side-effect for this class of drugs. The clinical term for this syndrome is opioid bowel dysfunction (OBD). Importantly, patients recovering from abdominal surgery experience post-operative ileus that is further exacerbated by concomitant opioid therapy for post-surgical pain.
• 1. […] Methods • 1. Rats (male, Sprague-Dawley, 250-300 g) are implanted with jugular vein catheters to accommodate dosing of test articles. • 2. Overnight-fasted rats are administered morphine (3 mg/kg s.c.). • 3. […] Radioactivity (^99mTc) in each tissue isolate is measured as a means of measuring the transit of the meal. Results

Data set [4] is described as follows: Pharmacokinetic analysis in rats (i.v., s.c., p.o.). It is filed as in vivo. The conditions noted are these: rat, typical dose 2 mg/kg. How it is done:
D. Pharmacokinetic Analysis of Representative Compounds of the Invention
Typical Dose • 1. Intravenous (i.v.): 2 mg/kg • 2. Subcutaneous (s.c): 2 mg/kg
Plasma Collection • 1. Same protocol for all dosing groups • 2.
Whole blood samples were chilled and immediately processed by centrifugation to obtain plasma.
Plasma samples were stored frozen (−70° C.) until analysis.

[5] abbreviates: binding activity at the human ghrelin receptor, [125I]-ghrelin displacement.
The mark [6] stands for this setting: binding activity, standard method, TFA salts unless otherwise noted.
[7] abbreviates: binding activity at the human ghrelin receptor, [125I]-ghrelin competition, GHS-R/HEK 293 membranes.

Take `CC1C(=O)NC(Cc2ccc(F)cc2)C(=O)NCCCc2ncccc2OCCNC(C2CC2)C(=O)N1C` (single isomer, unassigned) [306a]: the EC50 – broadly, the midpoint of the concentration-response curve – in data set [1] lay within 1 to 100 nM. Besides, the Selectivity on motilin receptor is reported as 714/1. The Ki in data set [2] (setting [5]) and in data set [2] (setting [6]) was 10 to 100 nM in each case.

`CC1C(=O)NC(Cc2ccc(F)cc2)C(=O)NCC2CC2c2ccccc2OCCNC(C2CC2)C(=O)N1C` (single isomer, unassigned) [389a]: the EC50 in data set [1] was in the range of 100 to 1000 nM. In addition, the Selectivity at motilin receptor is reported as 450/1. In data set [2] (setting [6]), the Ki – broadly, the equilibrium dissociation constant of an inhibitor or competing ligand from its target – fell in the range of 10 to 100 nM.

For the molecule `CC(C)C[C@@H]1NCCOc2ccccc2C=CCNC(=O)[C@H](Cc2ccccc2Cl)NC(=O)C2(CCCC2)NC1=O` (stereo in doubt) [compound 20], in data set [1], the EC50 fell in the range of 1 to 100 nM. Besides, the Selectivity at motilin receptor is 1044/1. Further, the Ki in data set [2] (setting [7]) and in data set [2] (setting [6]) was 0.1 to 10 nM throughout.

For the molecule `CCCC1NCCOc2ccccc2CCCNC(=O)C(Cc2ccccc2)NC(=O)C(C)N(C)C1=O` (stereo not drawn) [Compound 4], the EC50 in data set [1] fell in the range of 1 to 100 nM. Moreover, the Selectivity on motilin receptor was 3012/1. The Ki in data set [2] (setting [7]) and in data set [2] (setting [6]) was 10 to 100 nM throughout.

Consider `CCN(CC)CCNC(=O)c1cc(Cl)c(N)cc1OC` [Metoclopramide, reference compound], for which the “gastric emptying of a solid meal in naïve rat” value in data set [3] (i.v. immediately after meal, FIG. 14) is listed as “significant gastric emptying”.

`CN1CC[C@]23c4c5ccc(O)c4O[C@H]2[C@@H](O)C=C[C@H]3[C@H]1C5` [Morphine, morphine]: in the data set on morphine-treated rats, the “gastric emptying and intestinal transit” value is “significantly delayed gastric emptying and intestinal transit”.

`C[C@@H]1C(=O)N[C@H](Cc2ccccc2)C(=O)NCCCc2ccccc2OCCN[C@@H](C2CC2)C(=O)N1C` [compound 17]: in data set [1], the EC50 fell in the range of 1 to 100 nM. In addition, the Selectivity on motilin receptor is reported as 2500/1. Further, the Ki in data set [2] (setting [7]) and in data set [2] (setting [6]) was 0.1 to 10 nM each time.

As to `CC(C)C1NCCOc2ccccc2C=CCNC(=O)C(Cc2ccccc2)NC(=O)C(C)N(C)C1=O` (stereo not drawn) [compound 19], on motilin receptor, the Selectivity is on record as >1700/1. For the same molecule, the Ki in data set [2] (setting [6]) was 100 to 1000 nM.

Consider `CC(C)CC1NCCOc2ccccc2C=CCNC(=O)C(Cc2cccc(Cl)c2)NC(=O)C2(CCCC2)NC1=O` (stereo not drawn) [compound 21], for which the EC50 in data set [1] lay in the range of 1 to 100 nM. Further, the Selectivity on motilin receptor is 1078/1. Further, the Ki in data set [2] (setting [7]) and in data set [2] (setting [6]) was 0.1 to 10 nM throughout.

For the molecule `CC[C@H](C)[C@@H]1NCCOc2ccccc2CCCNC(=O)[C@@H](Cc2cccc(Cl)c2)NC(=O)[C@@H](C)N(C)C1=O` [compound 24], the Selectivity at motilin receptor is on record as 3039/1. Also, the Ki in data set [2] (setting [7]) and in data set [2] (setting [6]) was 0.1 to 10 nM in each case.

As to `CCC(C)C1NCCOc2ccccc2CCCNC(=O)C(Cc2ccc(Cl)cc2)NC(=O)C(C)N(C)C1=O` (stereo not drawn) [compound 25], the gastric emptying entry in data set [3] (fasted rats, 30 μg/kg) is recorded as “demonstrated gastric emptying”. In addition, in data set [3] (fasted rats, 100 μg/kg i.v.), the “increase in gastric emptying relative to the vehicle control group” value was found to be 39%. In data set [4], the “Clearance” value is recorded as 67 mL/min/kg and the “Elimination (t1/2, min)” value was 31 min. The Ki in data set [2] (setting [7]) lay in the range of 0.1 to 10 nM.

`CC[C@H](C)[C@@H]1NCCOc2ccccc2CCCNC(=O)[C@@H](Cc2ccc(F)cc2)NC(=O)[C@@H](C)N(C)C1=O` [compound 26]: the EC50 in data set [1] lay in the range of 1 to 100 nM. Further, the Selectivity on motilin receptor was >7700/1. The Ki in data set [2] (setting [7]) and in data set [2] (setting [6]) was 0.1 to 10 nM each time.

On to `CCC(C)C1NCCOc2ccccc2CCCNC(=O)C(Cc2ccc(OC)cc2)NC(=O)C(C)N(C)C1=O` (stereo not drawn) [compound 27], for which, in data set [1], the EC50 is 1 to 100 nM. In addition, the Selectivity at motilin receptor is on record as >7100/1. Also, the Ki in data set [2] (setting [7]) and in data set [2] (setting [6]) was 0.1 to 10 nM in each case.

As for `CC[C@H](C)[C@@H]1NCCOc2ccccc2CCCNC(=O)[C@@H](Cc2ccc3ccccc3c2)NC(=O)[C@@H](C)N(C)C1=O` [compound 31], in data set [1], the EC50 is 1 to 100 nM. Also, at motilin receptor, the Selectivity was 4900/1. Further, the Ki in data set [2] (setting [7]) and in data set [2] (setting [6]) was 0.1 to 10 nM throughout.

In the case of `CCCC1NCCOc2ccccc2C=CCNC(=O)C(Cc2ccccc2)NC(=O)C(C)N(C)C1=O` (stereo not drawn) [compound 39], on motilin receptor, the Selectivity is 3400/1.

As for `CCC(C)C1NCCOc2ccccc2C=CCNC(=O)C(Cc2ccccc2)NC(=O)C(C)N(C)C1=O` (stereo not drawn) [compound 40], the Selectivity on motilin receptor is reported as >3300/1.

For `CCC(C)C1NCCOc2ccccc2CCCNC(=O)C(Cc2ccccc2)NC(=O)C(C)N(CC)C1=O` (stereo not drawn) [compound 43], on motilin receptor, the Selectivity was 3700/1. Also, the Ki in data set [2] (setting [7]) and in data set [2] (setting [6]) was 10 to 100 nM in each case.

`CCC(C)C1NCCOc2ccccc2CCCNC(=O)C(CC(C)C)NC(=O)C(C)N(C)C1=O` (stereo not drawn) [compound 176]: the Selectivity at motilin receptor is listed as 105/1.

With `CCC(C)C1NCCOc2cccnc2CCCNC(=O)C(Cc2ccccc2)NC(=O)C(C)N(C)C1=O` (stereo not drawn) [compound 177], on motilin receptor, the Selectivity is listed as >100/1.

Turning to `CCC(C)C1NCCOc2ccc(C(=O)O)cc2CCCNC(=O)C(Cc2ccccc2)NC(=O)C(C)N(C)C1=O` (stereo not drawn) [compound 197], the Selectivity on motilin receptor is 100/1.

`C[C@@H]1C(=O)N[C@H](Cc2ccc(O)c(C(C)(C)C)c2)C(=O)NCCCc2ccccc2OCCN[C@@H](C2CC2)C(=O)N1C` [compound 311]: the Selectivity on motilin receptor was 21/1. The Ki in data set [2] (setting [6]) was in the range of 10 to 100 nM.

Regarding `CC1C(=O)NC(Cc2ccc(Cl)cc2Cl)C(=O)NCCCc2ccccc2OCCNC(C2CC2)C(=O)N1C` (stereo not drawn) [compound 314], the EC50 in data set [1] lay within 1 to 100 nM. Further, the Selectivity on motilin receptor is recorded as >5500/1. Moreover, the Ki in data set [2] (setting [5]) and in data set [2] (setting [6]) was 0.1 to 10 nM in each case.

`CCC(C)C1NCCCCCCCCNC(=O)C(Cc2cccc(Cl)c2)NC(=O)C2(CCCC2)NC1=O` (stereo not drawn) [compound 363]: the Selectivity at motilin receptor was 35/1.

`CC1C(=O)NC(Cc2ccc(F)cc2)C(=O)NCCCc2cc(NS(C)(=O)=O)ccc2OCCNC(C2CC2)C(=O)N1C` (stereo not drawn) [compound 374]: the Selectivity on motilin receptor is on record as 250/1.

Regarding `CCC(C)C1NCCOc2ccc(F)cc2CCCNC(=O)C(Cc2cccc(Cl)c2)NC(=O)C2(CCCC2)NC1=O` (stereo not drawn) [compound 382], the Selectivity at motilin receptor is reported as 74/1.

On to `CCC(C)C1NCCOc2ccccc2C2CC2CNC(=O)C(Cc2cccc(Cl)c2)NC(=O)C2(CCCC2)NC1=O` (stereo not drawn) [compound 388], for which the Selectivity at motilin receptor is listed as 400/1.

Regarding `CC1COc2ccccc2CCCNC(=O)C(Cc2ccc(F)cc2)NC(=O)C(C)N(C)C(=O)C(C2CC2)N1` (stereo not drawn) [compound 394], at motilin receptor, the Selectivity is 1700/1.
